Experimental data published in paper PMC9814635 (Communications Chemistry, 2022).

Experiments:
[1] = tested on: FGFR1; conditions: printed as potency 'toward FGFRs' in the FGFR1 comparison; cited from earlier work
[2] = Phase II FIGHT-202, patients; cited from earlier work
[3] = tested on: FGFR4-translocated Ba/F3 cells; experiment: cells; conditions: Mus musculus, BaF3, 72 h, read-out: IC50 proliferation, FGFR4 Ba/F3 cells
Procedure: (§1) Cell proliferation and viability were evaluated in parental Ba/F3 cells and TEL-FGFR1-4/FGFR mutation-translocated Ba/F3 cell lines.

[4] = tested on: parental Ba/F3 cells; experiment: cells; conditions: Mus musculus, BaF3, 72 h, read-out: IC50 proliferation, parental Ba/F3 cells
Procedure: as §1

CCN1C(=O)N(c2c(F)c(OC)cc(OC)c2F)Cc2cnc3[nH]c(CN4CCOCC4)cc3c21 [pemigatinib]
complete responses [2]: 2.8%
disease control rate [2]: 82.0%
objective response rate [2]: 35.5%
IC50 [3]: 0.012 µM
IC50 [4]: > 5 µM
